Reference: patent publication US8318752B2, “4-(3-chloro-2-fluoroanilino)-7-methoxy-6-{[1-(N-methylcarbamoyl-methyl)piperidin-4-yl]oxy}quinazoline, its pharmaceutically acceptable salts, and pharmaceutical compositions comprising the same” (Astrazeneca AB, priority 2003, dated 2012)

How the values were obtained:
[1] = target: T1, erbB2 (Homo sapiens, UniProt P04626); experiment: Clone 24 phospho-erbB2 cell assay, Test (e); type: cell-based; details: MCF7 derived Clone 24 cells overexpressing erbB2, 4 hrs; read-out: IC50 (μM) Test (e): Inhibition of erbB2 tyrosine kinase protein phosphorylation
T1 construct: overexpresses full length wild type erbB2 protein; expressed in transfected cells; host or cells: MCF7 (breast carcinoma) derived Clone 24 cells
Description: This immunofluorescence end point assay measures the ability of a test compound to inhibit the phosphorylation of erbB2 in a MCF7 (breast carcinoma) derived cell line which was generated by transfecting MCF7 cells with the full length erbB2 gene using standard methods to give a cell line that overexpresses full length wild type erbB2 protein (hereinafter ‘Clone 24’ cells).
Clone 24 cells were cultured in Growth Medium (phenol red free Dulbecco's modified Eagle's medium (DMEM) containing 10% foetal bovine serum, 2 mM glutamine and 1.2 mg/ml G418) in a 7.5% CO2 air incubator at 37° C. Cells were harvested from T75 stock flasks by washing once in PBS (phosphate buffered saline, pH7.4, Gibco No. 10010-015) and harvested using 2 mls of Trypsin (1.25 mg/ml)/ethylaminediaminetetraacetic acid (EDTA) (0.8 mg/ml) solution. The cells were resuspended in Growth Medium. Cell density was measured using a haemocytometer and viability was calculated using Trypan Blue solution before being further diluted in Growth Medium and seeded at a density of 1×10^4 cells per well (in 100 ul) into clear bottomed 96 well plates (Packard, No. 6005182).
3 days later, Growth Medium was removed from the wells and replaced with 100 ul Assay Medium (phenol red free DMEM, 2 mM glutamine, 1.2 mg/ml G418) either with or without erbB inhibitor compound. Plates were returned to the incubator for 4 hrs and then 20 μl of 20% formaldehyde solution in PBS was added to each well and the plate was left at room temperature for 30 minutes. This fixative solution was removed with a multichannel pipette, 100 μl of PBS was added to each well and then removed with a multichannel pipette and then 50 μl PBS was added to each well. Plates were then sealed and stored for up to 2 weeks at 4° C.
Immunostaining was performed at room temperature. […]
The Fluorescence signal is each well was measured using an Acumen Explorer Instrument (Acumen Bioscience Ltd.), a plate reader that can be used to rapidly quantitate features of images generated by laser-scanning. […]

[2] = target: T2, erbB2 tyrosine kinase (Homo sapiens, UniProt P04626); experiment: Protein tyrosine kinase phosphorylation assay, Test (a), erbB2; type: biochemical; details: recombinant intracellular fragment, ATP at Km; read-out: IC50 (μM) Test (a): Inhibition of erbB2 tyrosine kinase protein phosphorylation
T2 construct: Recombinant intracellular fragments of EGFR, erbB2 and erbB4; made in house; host or cells: baculovirus/Sf21
Description: (§1) This test measures the ability of a test compound to inhibit the phosphorylation of a tyrosine containing polypeptide substrate by EGFR or ErbB2 tyrosine kinase enzyme.
(§2) Recombinant intracellular fragments of EGFR, erbB2 and erbB4 (accession numbers X00588, X03363 and L07868 respectively) were cloned and expressed in the baculovirus/Sf21 system. Lysates were prepared from these cells by treatment with ice-cold lysis buffer (20 mM N-2-hydroxyethylpiperizine-N′-2-ethanesulfonic acid (HEPES) pH7.5, 150 mM NaCl, 10% glycerol, 1% Triton X-100, 1.5 mM MgCl2, 1 mM ethylene glycol-bis(β-aminoethyl ether) N′,N′,N′,N′-tetraacetic acid (EGTA), plus protease inhibitors and then cleared by centrifugation.
(§3) Constitutive kinase activity of the recombinant protein was determined by its ability to phosphorylate a synthetic peptide (made up of a random co-polymer of Glutamic Acid, Alanine and Tyrosine in the ratio of 6:3:1). Specifically, Maxisorb™ 96-well immunoplates were coated with synthetic peptide (0.2 μg of peptide in a 100 μl phosphate buffered saline (PBS) solution and incubated at 4° C. overnight). Plates were washed in PBS-T (phosphate buffered saline with 0.5% Tween 20) then in 50 mM HEPES pH 7.4 at room temperature to remove any excess unbound synthetic peptide. […]
(§4) The immobilised phospho-peptide product of the reaction was detected by immunological methods. […] After further washing, HRP activity in each well of the plate was measured colorimetrically using 22′-Azino-di-[3-ethylbenzthiazoline sulfonate (6)] diammonium salt crystals (ABTS™ from Roche) as a substrate.
(§5) Quantification of colour development and thus enzyme activity was achieved by the measurement of absorbance at 405 nm on a Molecular Devices ThermoMax microplate reader. Kinase inhibition for a given compound was expressed as an IC50 value. […] The range of phosphorylation was calculated from the positive (vehicle plus ATP) and negative (vehicle minus ATP) control values.

[3] = target: T3, EGFR tyrosine kinase (Homo sapiens, UniProt P00533); experiment: Protein tyrosine kinase phosphorylation assay, Test (a), EGFR; type: biochemical; details: recombinant intracellular fragment, ATP at Km; read-out: IC50 (μM) Test (a): Inhibition of EGFR tyrosine kinase protein phosphorylation
T3 construct: Recombinant intracellular fragments of EGFR, erbB2 and erbB4; made in house; host or cells: baculovirus/Sf21
Description: as §1, §2, §3, §4, §5

[4] = tested on: KB cells; experiment: EGFR driven KB cell proliferation assay, Test (b); type: cell-based; details: Homo sapiens, 96 h, EGF 1 ng/ml, 4 days, MTT
Description: This assay measures the ability of a test compound to inhibit the proliferation of KB cells (human naso-pharangeal carcinoma obtained from the American Type Culture Collection (ATCC).
KB cells (human naso-pharangeal carcinoma obtained from the ATCC were cultured in Dulbecco's modified Eagle's medium (DMEM) containing 10% foetal calf serum, 2 mM glutamine and non-essential amino acids at 37° C. in a 7.5% CO2 air incubator. Cells were harvested from the stock flasks using Trypsin/ethylaminediaminetetraacetic acid (EDTA). Cell density was measured using a haemocytometer and viability was calculated using trypan blue solution before being seeded at a density of 1.25×10^3 cells per well of a 96 well plate in DMEM containing 2.5% charcoal stripped serum, 1 mM glutamine and non-essential amino acids at 37° C. in 7.5% CO2 and allowed to settle for 4 hours.
Following adhesion to the plate, the cells are treated with or without EGF (final concentration of 1 ng/ml) and with or without compound at a range of concentrations in dimethylsulfoxide (DMSO) (0.1% final) before incubation for 4 days. Following the incubation period, cell numbers were determined by addition of 50 μl of 3-(4,5-Dimethylthiazol-2-yl)-2,5-diphenyltetrazolium bromide (MTT) (stock 5 mg/ml) for 2 hours. […]
Absorbance of the solubilised cells was read at 540 nm using a Molecular Devices ThermoMax microplate reader. […]

T1 sequence (P04626 23-1255): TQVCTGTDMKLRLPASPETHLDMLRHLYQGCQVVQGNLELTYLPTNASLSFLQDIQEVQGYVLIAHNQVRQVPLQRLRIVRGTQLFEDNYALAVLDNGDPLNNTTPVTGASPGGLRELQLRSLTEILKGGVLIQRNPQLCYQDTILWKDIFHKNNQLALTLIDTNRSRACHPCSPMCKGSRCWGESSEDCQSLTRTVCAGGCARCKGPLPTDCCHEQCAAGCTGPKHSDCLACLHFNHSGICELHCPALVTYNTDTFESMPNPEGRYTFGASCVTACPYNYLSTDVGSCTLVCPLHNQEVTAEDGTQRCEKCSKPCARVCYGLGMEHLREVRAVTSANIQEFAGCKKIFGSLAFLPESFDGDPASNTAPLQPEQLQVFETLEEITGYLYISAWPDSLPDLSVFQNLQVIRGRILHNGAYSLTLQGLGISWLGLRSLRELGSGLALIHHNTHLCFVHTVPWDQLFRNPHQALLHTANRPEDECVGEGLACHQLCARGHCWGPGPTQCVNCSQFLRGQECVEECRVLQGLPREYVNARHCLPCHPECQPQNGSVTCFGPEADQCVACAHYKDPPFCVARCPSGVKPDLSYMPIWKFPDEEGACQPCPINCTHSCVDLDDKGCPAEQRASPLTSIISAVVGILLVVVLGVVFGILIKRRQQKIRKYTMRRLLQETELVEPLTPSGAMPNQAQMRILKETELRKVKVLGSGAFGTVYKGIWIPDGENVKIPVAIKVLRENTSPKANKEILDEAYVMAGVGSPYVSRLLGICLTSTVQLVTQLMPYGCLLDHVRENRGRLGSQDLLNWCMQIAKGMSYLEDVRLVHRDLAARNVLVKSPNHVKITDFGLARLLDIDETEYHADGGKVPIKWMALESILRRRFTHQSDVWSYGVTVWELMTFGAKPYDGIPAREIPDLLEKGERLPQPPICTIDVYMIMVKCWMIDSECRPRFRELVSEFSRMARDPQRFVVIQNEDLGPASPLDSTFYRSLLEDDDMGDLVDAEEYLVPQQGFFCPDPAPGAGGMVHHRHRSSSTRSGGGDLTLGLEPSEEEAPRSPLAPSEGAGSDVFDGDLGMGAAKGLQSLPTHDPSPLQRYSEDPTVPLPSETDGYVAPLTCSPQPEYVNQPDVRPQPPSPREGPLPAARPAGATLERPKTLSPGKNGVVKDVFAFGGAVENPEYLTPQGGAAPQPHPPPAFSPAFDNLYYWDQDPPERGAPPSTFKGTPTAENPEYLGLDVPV
T3 sequence (P00533 669-1210 limits assumed): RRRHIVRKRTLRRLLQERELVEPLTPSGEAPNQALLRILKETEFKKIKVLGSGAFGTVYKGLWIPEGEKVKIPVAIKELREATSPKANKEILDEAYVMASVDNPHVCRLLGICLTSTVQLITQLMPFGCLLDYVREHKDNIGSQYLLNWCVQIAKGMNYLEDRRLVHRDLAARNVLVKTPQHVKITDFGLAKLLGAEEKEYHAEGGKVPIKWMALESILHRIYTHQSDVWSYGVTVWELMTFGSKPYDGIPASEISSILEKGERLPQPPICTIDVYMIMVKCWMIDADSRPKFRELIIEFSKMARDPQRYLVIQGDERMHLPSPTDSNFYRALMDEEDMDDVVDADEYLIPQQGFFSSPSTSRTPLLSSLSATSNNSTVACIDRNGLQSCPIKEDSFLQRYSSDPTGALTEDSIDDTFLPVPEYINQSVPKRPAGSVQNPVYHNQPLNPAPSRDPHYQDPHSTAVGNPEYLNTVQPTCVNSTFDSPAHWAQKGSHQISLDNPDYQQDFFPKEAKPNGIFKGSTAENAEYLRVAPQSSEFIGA
T2 sequence (P04626 676-1255 limits assumed): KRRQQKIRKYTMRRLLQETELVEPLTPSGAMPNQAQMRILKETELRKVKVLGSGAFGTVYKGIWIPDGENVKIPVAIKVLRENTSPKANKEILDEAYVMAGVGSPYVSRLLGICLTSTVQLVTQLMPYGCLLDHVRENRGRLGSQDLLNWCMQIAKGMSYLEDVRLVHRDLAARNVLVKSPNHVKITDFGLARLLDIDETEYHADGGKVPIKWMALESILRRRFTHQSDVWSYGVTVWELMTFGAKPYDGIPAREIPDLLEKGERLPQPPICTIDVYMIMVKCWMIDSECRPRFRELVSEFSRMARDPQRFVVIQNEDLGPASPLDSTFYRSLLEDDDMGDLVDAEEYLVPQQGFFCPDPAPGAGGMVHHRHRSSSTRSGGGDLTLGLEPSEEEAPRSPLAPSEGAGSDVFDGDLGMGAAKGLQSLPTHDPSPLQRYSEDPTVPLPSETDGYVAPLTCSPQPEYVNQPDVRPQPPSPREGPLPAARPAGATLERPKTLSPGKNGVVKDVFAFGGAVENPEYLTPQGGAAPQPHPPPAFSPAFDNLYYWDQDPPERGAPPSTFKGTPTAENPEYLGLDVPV

| IC50 [1] | IC50 [2] | IC50 [3] | IC50 [4] | SMILES |
| --- | --- | --- | --- | --- |
| 0.014 µM | 0.013 µM | 0.003 µM | 0.017 µM | COc1cc2ncnc(Nc3cccc(Cl)c3F)c2cc1OC1CCN(CC(=O)NCCN2CCCC2)CC1 [Example 7, 4-(3-chloro-2-fluoroanilino)-7-methoxy-6-{[1-(N-[2-(pyrrolidin-1-yl)ethyl]carbamoylmethyl)piperidin-4-yl]oxy}quinazoline] |
| 0.006 µM | 0.047 µM | 0.004 µM | 0.009 µM | CNC(=O)CN1CCC(Oc2cc3c(Nc4ccc(F)c(Cl)c4F)ncnc3cc2OC)CC1 [Example 5, 4-(3-chloro-2,4-difluoroanilino)-7-methoxy-6-{[1-(N-methycarbamoylmethyl)piperidin-4-yl]oxy}quinazoline] |
| 0.013 µM | 0.01 µM | 0.004 µM | – | COc1cc2ncnc(Nc3cccc(Cl)c3F)c2cc1OC1CCN(CC(=O)N2CCN(C)CC2)CC1 [Example 10, 4-(3-chloro-2-fluoroanilino)-7-methoxy-6-({1-[2-(4-methylpiperazin-1-yl)-2-oxoethyl]piperidin-4-yl}oxy)quinazoline] |
